Reference: patent US9662328B2, “Targeting human thymidylate kinase induces DNA repair toxicity in malignant tumor cells” (NATIONAL YANG-MING UNIVERSITY, priority 2010, dated 2017)

biological target: T1, hTMPK (Homo sapiens, UniProt P23919); assay: In vitro inhibitory activity against human TMPK at 2 μM; assay type: biochemical; conditions: test compounds at 2 μM concentration
T1 sequence (P23919 1-212): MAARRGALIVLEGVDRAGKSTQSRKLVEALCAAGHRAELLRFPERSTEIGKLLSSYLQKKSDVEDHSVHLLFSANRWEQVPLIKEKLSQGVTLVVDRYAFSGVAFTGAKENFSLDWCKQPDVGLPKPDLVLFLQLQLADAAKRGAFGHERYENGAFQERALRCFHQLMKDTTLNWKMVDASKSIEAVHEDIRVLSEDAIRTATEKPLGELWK
Method: The TMPK reaction was started by adding purified hTMPK in 50 μl of TMPK assay buffer (100 mM Tris-HCl, pH 7.5, 100 mM KCl, 10 mM MgCl2, 50 μM ATP and 100 μM dTMP) in 96 wells plate at 25° C. for 10 min and terminated by adding 200 μl of DTNB (100 μM), followed by transferring 10 μl of reaction solution to a white 96-wellplate containing 90 μl of luciferase assay buffer (50 mM Glycine, 0.5 mM EDTA and 5 mM EDTA, pH 7.0, 0.1 μg of luciferase, 50 μM luciferin and 0.1% BSA). The luminescence was measured with a luminescence counter (Packard).
All reactions were performed in 96-well plates in an assay volume of 100 μl. The activity of hTMPK was measured at 25° C. using a modified NADH coupled colorimetric assay as described (Agarwal et al., 1978; Miyata et al., 2003; Ostermann et al., 2003), in which purified hTMPK was added to the buffer containing 100 mM Tris-HCl, pH 7.5, 100 mM KCl, 10 mM MgCl2, 0.5 mM phosphoenol pyruvate, 0.25 mM NADH, 5 units of lactate dehydrogenase, 4 units of pyruvate kinase, 1 mM ATP, and 200 μM dTMP. The change of NADH was measured by reading the absorbance at 340 nm. One unit of TMPK activity is defined as the conversion of […] of TMP to TDP per minute.
The in vitro inhibitory activities of test compounds (at 2 μM concentration) against human TMPK are shown in Table 3 and compared with that of YMU1 and YMU2.

Compound	inhibition at 2 µM [%]
CC(C)(C)OC(=O)N1CCN(C(=O)Cn2sc3cc(N)ccc3c2=O)CC1 [I-d-13, Tert-butyl 4-(2-(6-amino-3-oxobenzo[d]isothiazol-2(3H)-yl)acetyl)piperazine-1-carboxylate]	39 ± 14
Cc1cc(N)nc2sn(CC(=O)N3CCNCC3)c(=O)c12 [I-c-3, 6-Amino-4-methyl-2-[2-oxo-2-(piperazin-1-yl)ethyl]isothiazolo[5,4-b]pyridin-3(2H)-one]	6 ± 5
O=C(CI)N1CCN(C(=O)Cn2sc3ccccc3c2=O)CC1 [I-e-1, 2-[2-(4-(2-Iodoacetyl)piperazin-1-yl)-2-oxoethyl]benzo[d]isothiazol-3(2H)-one]	31 ± 5
Cc1cc(N)nc2sn(CC(=O)N3CCN(C(=O)Oc4ccc([N+](=O)[O-])cc4)CC3)c(=O)c12 [I-a-4, 4-Nitrophenyl 4-[2-(6-amino-4-methyl-3-oxoisothiazolo[5,4-b]pyridin-2(3H)-yl)acetyl]piperazine-1-carboxylate]	10 ± 7
CC(C)(C)OC(=O)N1CCN(C(=O)Cn2sc3cc(O[Si](C)(C)C(C)(C)C)ccc3c2=O)CC1 [I-d-17, Tert-butyl 4-(2-(6-((tert-butyldimethylsilyl)oxy)-3-oxobenzo[d]isothiazol-2(3H)-yl)-acetyl)piperazine-1-carboxylate]	80 ± 4
Cc1cc(C)c2c(=O)n(CC(=O)N3CCN(C(=O)OC(C)(C)C)CC3)sc2n1 [YMU2, reference compound]	46 ± 2
Cc1cc(C)c2c(=O)n(CC(=O)N3CCN(C(=O)CI)CC3)sc2n1 [I-b-3, 4,6-Dimethyl-2-[2-(4-(2-iodoacetyl)piperazin-1-yl)-2-oxoethyl]-isothiazolo[5,4-b]pyridin-3(2H)-one]	29 ± 3
CC(C)(C)OC(=O)N1CCN(C(=O)Cn2sc3cc(Cl)ccc3c2=O)CC1 [I-d-9, Tert-butyl 4-(2-(6-chloro-3-oxobenzo[d]isothiazol-2(3H)-yl)acetyl)piperazine-1-carboxylate]	55 ± 7

Results, then the molecule that gave them:

inhibition at 2 µM [%]	Compound
80 ± 10	O=C(Cn1sc2ncccc2c1=O)N1CCN(C(=O)Oc2ccc([N+](=O)[O-])cc2)CC1 [I-a-2, 4-Nitrophenyl 4-(2-(3-oxoisothiazolo[5,4-b]pyridin-2(3H)-yl)acetyl)piperazine-1-carboxylate]
100 ± 9	CC(C)(C)OC(=O)N1CCN(C(=O)Cn2sc3ccccc3c2=O)CC1 [I-d-2, Tert-butyl 4-(2-(3-oxobenzo[d]isothiazol-2(3H)-yl)acetyl)piperazine-1-carboxylate]
75 ± 11	O=C(Cn1sc2ncccc2c1=O)N1CCNCC1 [I-c-1, 2-(2-Oxo-2-(piperazin-1-yl)ethyl)isothiazolo[5,4-b]pyridin-3(2H)-one]
22 ± 12	CC(C)(C)OC(=O)N1CCN(C(=O)Cn2sc3cc(O)ccc3c2=O)CC1 [I-d-16, Tert-butyl 4-(2-(6-hydroxy-3-oxobenzo[d]isothiazol-2(3H)-yl)acetyl)piperazine-1-carboxylate]
34 ± 2	O=C(Cn1sc2ccccc2c1=O)N1CCNCC1 [I-f-1, 2-(2-Oxo-2-(piperazin-1-yl)ethyl)benzo[d]isothiazol-3(2H)-one]
50 ± 5	CCCCNC(=O)NCC(=O)N1CCN(C(=O)Cn2sc3ccccc3c2=O)CC1 [I-e-7, Butyl-3-(2-oxo-2-(4-(2-(3-oxobenzo[d]isothiazol-2(3H)-yl)acetyl)piperazin-1-yl)ethyl)urea]
25 ± 3	CC(C)(C)OC(=O)N1CCN(C(=O)Cn2sc3c(F)cccc3c2=O)CC1 [I-d-8, Tert-butyl 4-(2-(7-fluoro-3-oxobenzo[d]isothiazol-2(3H)-yl)acetyl)piperazine-1-carboxylate]
16 ± 5	Cc1cc(N)nc2sn(CC(=O)N3CCN(C(=O)OC(C)(C)C)CC3)c(=O)c12 [I-a-3, Tert-butyl 4-[(6-amino-4-methyl-3-oxoisothiazolo[5,4-b]pyridin-2(3H)-2-yl)acetyl]piperazine-1-carboxylate]
